In ChEMBL document CHEMBL3046513, “Synthesis, characterization, and biological evaluation of some N-aryl hydrazones and their 2,3-disubstituted-4-thiazolidinone derivatives” (Med Chem Res, 2013):
Converted amounts (≈) assume the structure as drawn.

Columns and labels:
Assay type in all cases: functional
Candida albicans = test: Antifungal activity against Candida albicans assessed as growth inhibition by serial plate dilution method
Bacillus cereus = test: Antibacterial activity against Bacillus cereus assessed as growth inhibition by serial plate dilution method
Pseudomonas aeruginosa = test: Antibacterial activity against Pseudomonas aeruginosa ATCC 27853 assessed as growth inhibition by serial plate dilution method
Staphylococcus aureus = test: Antibacterial activity against Staphylococcus aureus ATCC 25923 assessed as growth inhibition by serial plate dilution method
Escherichia coli = test: Antibacterial activity against Escherichia coli ATCC 25922 assessed as growth inhibition by serial plate dilution method
Mus musculus [1] = test: Analgesic activity in Mus musculus […] albino (mouse) assessed as time taken to tail withdrawl at 100 mg/kg, po administered through intragastric tube after 180 min by tail flick test (reference value: 1.363 +/- 0.1297 secs)
Mus musculus [2] = test: Analgesic activity in Mus musculus […] albino (mouse) assessed as time taken to tail withdrawl at 100 mg/kg, po administered through intragastric tube after 120 min by tail flick test (reference value: 1.363 +/- 0.1297 secs)
Mus musculus [3] = test: Analgesic activity in Mus musculus […] albino (mouse) assessed as time taken to tail withdrawl at 100 mg/kg, po administered through intragastric tube after 60 min by tail flick test (reference value: 1.363 +/- 0.1297 secs)
Rattus norvegicus [4] = test: Anti-inflammatory activity in Rattus norvegicus (rat) assessed as decrease in carrageenan-induced paw edema at 100 mg/kg, po administered 30 min prior to carrageenan challenge measured after 180 min (reference value: 2.275 +/- 0.1181 mm)
Rattus norvegicus [5] = test: Anti-inflammatory activity in Rattus norvegicus (rat) assessed as decrease in carrageenan-induced paw edema at 100 mg/kg, po administered 30 min prior to carrageenan challenge measured after 120 min (reference value: 2.375 +/- 0.1436 mm)
Rattus norvegicus [6] = test: Anti-inflammatory activity in Rattus norvegicus (rat) assessed as decrease in carrageenan-induced paw edema at 100 mg/kg, po administered 30 min prior to carrageenan challenge measured after 60 min (reference value: 2.175 +/- 0.1797 mm)
[7] = test system: Radical scavenging activity; test: Antioxidant activity assessed as inhibition of DPPH radical generation at 800 ug/mL after 20 min by spectrophotometric analysis relative to control
[8] = test system: Radical scavenging activity; test: Antioxidant activity assessed as inhibition of DPPH radical generation at 400 ug/mL after 20 min by spectrophotometric analysis relative to control
[9] = test system: Radical scavenging activity; test: Antioxidant activity assessed as inhibition of DPPH radical generation at 200 ug/mL after 20 min by spectrophotometric analysis relative to control

Compound | MIC (Candida albicans) [µg/mL] | MIC (Bacillus cereus) [µg/mL] | MIC (Pseudomonas aeruginosa) [µg/mL] | MIC (Staphylococcus aureus) [µg/mL] | MIC (Escherichia coli) [µg/mL] | Time (Mus musculus [1]) [s] | Time (Mus musculus [2]) [s] | Time (Mus musculus [3]) [s] | Activity (Rattus norvegicus [4]) [mm] | Activity (Rattus norvegicus [5]) [mm] | Activity (Rattus norvegicus [6]) [mm] | inhibition [7] [%] | inhibition [8] [%] | inhibition [9] [%]
COc1ccc(Br)c(C(=O)N/N=C\c2ccc(-c3ccccc3)cc2)c1 | 12.5 (≈ 30.5 µM) | 25 (≈ 61.1 µM) | 6.25 (≈ 15.3 µM) | 25 (≈ 61.1 µM) | 25 (≈ 61.1 µM) |  |  |  |  |  |  |  |  | 
OC(Cn1cncn1)(Cn1cncn1)c1ccc(F)cc1F [FLUCONAZOLE] | 8 (≈ 26.1 µM) |  |  |  |  |  |  |  |  |  |  |  |  | 
COc1ccc(Br)c(C(=O)NN2C(=O)CSC2c2ccccc2)c1 (stereo not drawn) | 6.25 (≈ 15.3 µM) | 25 (≈ 61.4 µM) | 12.5 (≈ 30.7 µM) | 25 (≈ 61.4 µM) | 12.5 (≈ 30.7 µM) | 2.425 | 3.563 | 3.675 | 1.75 | 1.65 | 1.575 | 41.6 | 18.1 | 4.3
COc1ccc(Br)c(C(=O)NN2C(=O)CSC2c2ccc(Cl)cc2)c1 (stereo not drawn) | 12.5 (≈ 28.3 µM) | 12.5 (≈ 28.3 µM) | 3.12 (≈ 7.07 µM) | 12.5 (≈ 28.3 µM) | 12.5 (≈ 28.3 µM) | 2.463 | 2.788 | 2.613 | 2.25 | 2.25 | 2.15 | 58.2 | 58.2 | 57.5
COc1ccc(Br)c(C(=O)N/N=C\c2ccc(Cl)cc2)c1 | 3.12 (≈ 8.5 µM) | 12.5 (≈ 34 µM) | 3.12 (≈ 8.5 µM) | 6.25 (≈ 17 µM) | 6.25 (≈ 17 µM) |  |  |  |  |  |  |  |  | 
COc1ccc(Br)c(C(=O)NN2C(=O)CSC2c2ccc(-c3ccccc3)cc2)c1 (stereo not drawn) | 6.25 (≈ 12.9 µM) | 6.25 (≈ 12.9 µM) | 6.25 (≈ 12.9 µM) | 12.5 (≈ 25.9 µM) | 6.25 (≈ 12.9 µM) | 3.113 | 3.313 | 2.988 | 2.075 | 1.875 | 1.45 | 62.5 | 39.9 | 15.3
COc1ccc(C2SCC(=O)N2NC(=O)c2cc(OC)ccc2Br)c(OC)c1 (stereo not drawn) | 3.12 (≈ 6.69 µM) | 6.25 (≈ 13.4 µM) | 6.25 (≈ 13.4 µM) | 12.5 (≈ 26.7 µM) | 12.5 (≈ 26.7 µM) | 2.388 | 3.075 | 3.175 | 1.9 | 2.15 | 2.125 | 71 | 33.2 | 15.9
CC1(C)S[C@@H]2[C@H](NC(=O)Cc3ccccc3)C(=O)N2[C@H]1C(=O)O [PENICILLIN G] |  | 0.12 (≈ 0.359 µM) | 0.12 (≈ 0.359 µM) | 0.12 (≈ 0.359 µM) | 0.12 (≈ 0.359 µM) |  |  |  |  |  |  |  |  | 
COc1ccc(/C=N\NC(=O)c2cc(OC)ccc2Br)c(OC)c1 | 6.25 (≈ 15.9 µM) | 12.5 (≈ 31.8 µM) | 6.25 (≈ 15.9 µM) | 12.5 (≈ 31.8 µM) | 6.25 (≈ 15.9 µM) |  |  |  |  |  |  |  |  | 
COc1ccc(Br)c(C(=O)NN2C(=O)CSC2c2ccc(O)cc2)c1 (stereo not drawn) | 6.25 (≈ 14.8 µM) | 12.5 (≈ 29.5 µM) | 6.25 (≈ 14.8 µM) | 12.5 (≈ 29.5 µM) | 6.25 (≈ 14.8 µM) | 2.532 | 2.775 | 2.675 | 2.048 | 1.899 | 1.89 | 58.3 | 58 | 57.8
COc1ccc(Br)c(C(=O)NN2C(=O)CSC2c2ccccc2Cl)c1 (stereo not drawn) | 6.25 (≈ 14.1 µM) | 6.25 (≈ 14.1 µM) | 3.12 (≈ 7.07 µM) | 6.25 (≈ 14.1 µM) | 12.5 (≈ 28.3 µM) | 2.5 | 2.125 | 1.963 | 2.075 | 1.975 | 1.85 | 72.9 | 65.9 | 59.3
O=C(O)Cc1ccccc1Nc1c(Cl)cccc1Cl [DICLOFENAC] |  |  |  |  |  |  |  |  | 0.625 | 0.625 | 0.6 |  |  | 
COc1ccc(/C=N\NC(=O)c2cc(OC)ccc2Br)cc1 | 6.25 (≈ 17.2 µM) | 12.5 (≈ 34.4 µM) | 3.12 (≈ 8.6 µM) | 12.5 (≈ 34.4 µM) | 12.5 (≈ 34.4 µM) |  |  |  |  |  |  |  |  | 
COc1ccc(Br)c(C(=O)N/N=C/C2=C(Cl)c3ccccc3C(c3ccc(Cl)c(Cl)c3)C2)c1 (stereo not drawn) | 6.25 (≈ 11.1 µM) | 12.5 (≈ 22.1 µM) | 6.25 (≈ 11.1 µM) | 12.5 (≈ 22.1 µM) | 12.5 (≈ 22.1 µM) |  |  |  |  |  |  |  |  | 
COc1ccc(Br)c(C(=O)N/N=C\c2cccc(Cl)c2)c1 | 6.25 (≈ 17 µM) | 12.5 (≈ 34 µM) | 6.25 (≈ 17 µM) | 25 (≈ 68 µM) | 12.5 (≈ 34 µM) |  |  |  |  |  |  |  |  | 
COc1ccc(Br)c(C(=O)N/N=C\c2cccnc2)c1 | 3.12 (≈ 9.35 µM) | 6.25 (≈ 18.7 µM) | 6.25 (≈ 18.7 µM) | 6.25 (≈ 18.7 µM) | 6.25 (≈ 18.7 µM) |  |  |  |  |  |  |  |  | 
O=C1O[C@H]([C@@H](O)CO)C(O)=C1O |  |  |  |  |  |  |  |  |  |  |  | 96 | 95 | 87.6
COc1ccc(Br)c(C(=O)NN2C(=O)CSC2c2cccnc2)c1 (stereo not drawn) | 3.12 (≈ 7.65 µM) | 6.25 (≈ 15.3 µM) | 6.25 (≈ 15.3 µM) | 6.25 (≈ 15.3 µM) | 6.25 (≈ 15.3 µM) | 2.938 | 3.6 | 3.25 | 1.9 | 1.75 | 1.45 | 25.1 | 23.5 | 21.6
COc1ccc(Br)c(C(=O)N/N=C\c2ccc(O)c(OC)c2)c1 | 12.5 (≈ 33 µM) | 6.25 (≈ 16.5 µM) | 12.5 (≈ 33 µM) | 12.5 (≈ 33 µM) | 6.25 (≈ 16.5 µM) |  |  |  |  |  |  |  |  | 
CC(C)=CCN1CC[C@]2(C)c3cc(O)ccc3C[C@H]1[C@H]2C [(+)-PENTAZOCINE] |  |  |  |  |  | 7.025 | 6.863 | 7.075 |  |  |  |  |  | 
COc1ccc(Br)c(C(=O)N/N=C\c2ccccc2OC)c1 | 6.25 (≈ 17.2 µM) | 12.5 (≈ 34.4 µM) | 3.12 (≈ 8.6 µM) | 6.25 (≈ 17.2 µM) | 12.5 (≈ 34.4 µM) |  |  |  |  |  |  |  |  | 
COc1ccc(Br)c(C(=O)NN2C(=O)CSC2C2=C(Cl)c3ccccc3C(c3ccc(Cl)c(Cl)c3)C2)c1 (stereo not drawn) | 6.25 (≈ 9.78 µM) | 12.5 (≈ 19.6 µM) | 6.25 (≈ 9.78 µM) | 6.25 (≈ 9.78 µM) | 12.5 (≈ 19.6 µM) | 2.338 | 3.388 | 3.463 | 2.025 | 2.175 | 2.025 |  |  | 
COc1ccc(Br)c(C(=O)N/N=C\c2cccc3cc(OC)ccc23)c1 | 12.5 (≈ 30.2 µM) | 6.25 (≈ 15.1 µM) | 12.5 (≈ 30.2 µM) | 6.25 (≈ 15.1 µM) | 12.5 (≈ 30.2 µM) |  |  |  |  |  |  |  |  | 
COc1ccc(Br)c(C(=O)N/N=C\c2ccc(F)cc2)c1 | 12.5 (≈ 35.6 µM) | 6.25 (≈ 17.8 µM) | 6.25 (≈ 17.8 µM) | 6.25 (≈ 17.8 µM) | 12.5 (≈ 35.6 µM) |  |  |  |  |  |  |  |  | 
COc1ccc(Br)c(C(=O)N/N=C\c2ccccc2Cl)c1 | 6.25 (≈ 17 µM) | 6.25 (≈ 17 µM) | 6.25 (≈ 17 µM) | 12.5 (≈ 34 µM) | 6.25 (≈ 17 µM) |  |  |  |  |  |  |  |  | 
COc1ccc(Br)c(C(=O)N/N=C\c2ccc(O)cc2)c1 | 3.12 (≈ 8.95 µM) | 6.25 (≈ 17.9 µM) | 6.25 (≈ 17.9 µM) | 12.5 (≈ 35.8 µM) | 12.5 (≈ 35.8 µM) |  |  |  |  |  |  |  |  | 
COc1ccc(Br)c(C(=O)N/N=C\c2ccc([N+](=O)[O-])cc2)c1 | 3.12 (≈ 8.26 µM) | 6.25 (≈ 16.5 µM) | 6.25 (≈ 16.5 µM) | 12.5 (≈ 33.1 µM) | 6.25 (≈ 16.5 µM) |  |  |  |  |  |  |  |  | 
COc1ccc(Br)c(C(=O)N/N=C\c2ccc(C)cc2)c1 | 6.25 (≈ 18 µM) | 12.5 (≈ 36 µM) | 12.5 (≈ 36 µM) | 12.5 (≈ 36 µM) | 6.25 (≈ 18 µM) |  |  |  |  |  |  |  |  | 
COc1ccc(Br)c(C(=O)N/N=C\c2ccccc2O)c1 | 6.25 (≈ 17.9 µM) | 12.5 (≈ 35.8 µM) | 6.25 (≈ 17.9 µM) | 12.5 (≈ 35.8 µM) | 6.25 (≈ 17.9 µM) |  |  |  |  |  |  |  |  | 
